Measured values: patent publication US10487054B2, “Therapeutic compounds” (REGENTS OF THE UNIVERSITY OF MINNESOTA, priority 2017, dated 2019)

Tests used:
active TOPK = biological target: T1, active TOPK (Homo sapiens, UniProt Q96KB5); assay: ATP competition pull-down assay with compound 1-conjugated Sepharose 4B beads; type: binding; conditions: ATP 0, 10 or 100 μM; active TOPK 200 ng
T1 construct: purchased SignalChem (Richmond, BC, Canada)
T1 sequence (Q96KB5 1-322): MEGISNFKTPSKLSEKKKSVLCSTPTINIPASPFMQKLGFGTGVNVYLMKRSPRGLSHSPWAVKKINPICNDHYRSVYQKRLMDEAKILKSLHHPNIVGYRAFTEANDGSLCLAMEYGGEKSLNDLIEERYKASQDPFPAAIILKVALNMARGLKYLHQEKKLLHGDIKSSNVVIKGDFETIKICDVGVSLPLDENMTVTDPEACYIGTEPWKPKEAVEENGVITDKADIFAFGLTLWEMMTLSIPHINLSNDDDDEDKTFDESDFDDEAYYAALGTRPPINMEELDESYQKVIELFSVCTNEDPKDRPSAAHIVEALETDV
Experimental: (§1) Active TOPK (200 ng) was incubated with different concentrations of ATP (0, 10 or 100 μM) and then mixed with compound 1-conjugated Sepharose 4B beads or Sepharose 4B beads. Proteins were pulled down and analyzed by Western blot. Data are representative of 3 independent experiments that gave similar results. FIGS. 2C and 2D show compound 1 binds to either TOPK (2C) or MEK1/2 (2D) ex vivo. Lysates from HaCaT cells (500 μg) were incubated with compound 1-conjugated Sepharose 4B beads or Sepharose 4B beads alone and the pulled-down proteins were analyzed by Western blot. Data are representative of 3 independent experiments that gave similar results. FIGS. 2E and 2F show compound 1 inhibits TOPK kinase (2E) activity but not MEK1 kinase (2F) activity in vitro. Active TOPK (200 ng) was mixed with compound 1 (0, 0.5, 1, 3, or 5 μM) or HI-032 (TOPK inhibitor, 10 μM) and then incubated with a [γ-^32P] ATP mixture. Similarly, MEK1 (200 ng) was mixed with compound 1 (0, 0.5, 1, 3, 5, or 10 μM) or PD098059 (MEK1 inhibitor, 5 μM) and then incubated with a [γ-^32P] ATP mixture. For 2E and 2F, the results are visualized by autoradiography and Coomassie blue staining serves as a loading control. Data are representative of 3 independent experiments that gave similar results. […]

TOPK = biological target: T2, TOPK (Homo sapiens, UniProt Q96KB5); assay: Pull-down assay with HaCaT cell lysates; type: binding; conditions: HaCaT cell lysates 500 μg, Western blot
T2 construct: endogenous in cells; host or cells: HaCaT
T2 sequence (Q96KB5 1-322): T1 sequence (Q96KB5 1-322)
Experimental: as §1

MEK1/2 = assay: Pull-down assay with HaCaT cell lysates; type: binding, human; conditions: HaCaT cell lysates 500 μg, Western blot
Experimental: as §1

A431 cells = assay: Western blot of TOPK downstream signaling; type: cell-based, human
Experimental: (§2) The cells were cultured, treated for 4 h with different concentrations of compound 1 and then exposed to SUV (60 kJ UVA/m^2 and 2.9 kJ UVB/m^2), followed by an additional 15-minute incubation. Cells were harvested and the levels of phosphorylated and total proteins were determined by Western blot analysis with specific antibodies as indicated. […] The cells were cultured and treated with different concentrations of compound 1 for 24 h. Cells were harvested and the levels of phosphorylated and total proteins were determined by Western blot analysis with specific antibodies as indicated. […] For the luciferase assay, JB6 P+ cells stably transfected with an AP-1 luciferase reporter plasmid were cultured. After starvation for 24 h, cells were treated for 1 h with compound 1 (0, 1.25, 2.5, or 5 μM). Cells were then exposed to SUV (60 kJ UVA/m^2 and 2.9 kJ UVB/m^2) and harvested 3 h later. Luciferase activity was measured and AP-1 activity is expressed relative to control cells without SUV treatment. […] Knockdown of TOPK in A431 cell line (left). Stable control or TOPK knockdown cells were co-transfected with 100 ng of the AP-1 luciferase reporter plasmid and 50 ng of internal control […] plasmid. Cells were transfected using iMFectin poly DNA transfection reagent (GenDEPOT) according to the manufacturer's instructions. After 12 h of transfection, cells were incubated with the different concentrations of compound 1 for another 24 h. Luciferase and […] activities were measured using reagents included in the reporter assay system (right). Data are shown as mean values±S.D obtained from triplicate experiments. Significant differences were evaluated using one-way ANOVA and the asterisks (*) indicate a significant effect (*, p<0.05; **, p<0.001; ***, p<0.0001).
(§3) HaCaT or JB6 P+ cells (1×10^6) were cultured in 10-cm dishes for 24 h and then the medium was replaced with 0.1% FBS medium for 24 h. Cells were then treated with different concentrations of compound 1 for 4 h followed by exposure to SUV (60 kJ UVA/m^2 and 2.9 kJ UVB/m^2). After SUV, cells were incubated for 15 min at 37° C. in a 5% CO2 humidified incubator. SCC12 and A431 cells (1.5×10^6) were cultured in 10-cm dishes overnight and then starved for 24 h. Cells were then treated with different concentrations of compound 1 for an additional 24 h. Protein concentration in cell lysates was determined using a protein assay kit (Bio-Rad Laboratories, Hercules, Calif.). Equal amounts of proteins were resolved by SDS-PAGE and then transferred onto polyvinylidene difluoride (PVDF) membranes (EMD Millipore Corp., Billerica, Mass.) and membranes were blocked with 5% nonfat milk for 1 h at room temperature. […]

SCC12 cells = assay: Western blot of TOPK downstream signaling; type: cell-based, human
Experimental: as §2, §3

binding ability with TOPK in presence of ATP (active TOPK): altered in the presence of ATP
SMILES: O=C1Nc2ccc(C34CC5CC(CC(C5)C3)C4)cc2C1=NO [compound 1, 5-(adamantan-1-yl)-3-(hydroxyimino)indolin-2-one]
binding of TOPK to compound-conjugated beads (TOPK): detected in the compound 1-conjugated beads group but not in the beads only group
binding of MEK1/2 to compound-conjugated beads (MEK1/2): detected in the compound 1-conjugated beads group but not in the beads only group
phosphorylated c-Jun protein levels (A431 cells): blocked dose-dependently
phosphorylation of ERK1/2, p38, and JNKs (A431 cells; 24 h, dose-dependently): blocked
phosphorylated c-Jun protein levels (SCC12 cells): blocked dose-dependently
phosphorylation of ERK1/2, p38, and JNKs (SCC12 cells; 24 h, dose-dependently): blocked
